In this assay the target is Human gene recombinant 5-HT7 receptor (Homo sapiens (Human), UniProt P34969). Briefly: Measurement of binding affinity for serotonin 5-HT7 receptor ([3H]LSD radioligand binding). Conditions: [3H]LSD 1 nM, 5-HT7 receptor membrane from CHO cells; for inhibition at 10 µM: 10 μM compound; for pKi: nonlinear regression. How it is done:
Human gene recombinant 5-HT7 receptor expressed in Chinese hamster ovary (CHO) cells was used. [^3H]LSD 1 nM, the 5-HT7 receptor membrane (15 μg/well), each of the samples of Example 1-20 at various concentrations, 10 mM MgCl2, and 50 mM Tris-HCl buffer (pH 7.4) containing 0.1 mM EDTA were added to a vessel until the final volume reached 0.25 ml. The reaction mixture was incubated at 25° C. for 90 min. The incubated reaction mixture was rapidly passed through a Whatman GF/C glass fiber filter, which had been previously soaked with 0.3% polyethyleneimine, using a Brandel-Harvester to quench the reaction and washed with cold 50 mM Tris-HCl buffer. The filter was covered with MeltiLex, sealed in a sample bag, and dried in an oven. The radioactivity retained in the filter was counted using MicroBeta (Wallac). Non-specific binding was determined in the presence of 0.5 μM Mianserin.

pKi: −log10 of the molar value.

Sequence of Human gene recombinant 5-HT7 receptor (P34969 whole entry): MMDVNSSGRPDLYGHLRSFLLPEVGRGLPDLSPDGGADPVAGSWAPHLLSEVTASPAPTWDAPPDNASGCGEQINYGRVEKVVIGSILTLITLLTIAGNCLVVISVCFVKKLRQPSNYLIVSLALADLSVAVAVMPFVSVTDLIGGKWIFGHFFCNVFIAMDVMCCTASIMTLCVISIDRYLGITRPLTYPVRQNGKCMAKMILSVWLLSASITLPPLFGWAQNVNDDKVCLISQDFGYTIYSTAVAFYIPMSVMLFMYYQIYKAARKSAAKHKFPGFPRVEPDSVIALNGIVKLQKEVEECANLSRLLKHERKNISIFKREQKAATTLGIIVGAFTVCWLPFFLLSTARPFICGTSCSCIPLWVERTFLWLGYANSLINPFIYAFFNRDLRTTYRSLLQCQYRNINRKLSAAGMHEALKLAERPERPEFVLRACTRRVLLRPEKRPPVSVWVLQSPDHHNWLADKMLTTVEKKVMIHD

As to `c1ccc(-c2n[nH]c3c2CCNCC3)cc1` [Example 1, 3-phenyl-1,4,5,6,7,8-hexahydropyrazolo[3,4-d]azepine], the inhibition (usually the relative decrease from the control value, in per cent) at 10 µM was 84.2% and the pKi (usually the Ki on a negative log10 scale, so that one unit is a factor of ten) was 6.49.
In the case of `Fc1ccccc1-c1n[nH]c2c1CCNCC2` [Example 2, 3-(2-fluorophenyl)-1,4,5,6,7,8-hexahydropyrazolo[3,4-d]azepine], the inhibition at 10 µM worked out at 78.9% and the pKi is 6.15.
As for `Fc1cccc(-c2n[nH]c3c2CCNCC3)c1` [Example 3, 3-(3-fluorophenyl)-1,4,5,6,7,8-hexahydropyrazolo[3,4-d]azepine], the inhibition at 10 µM is 72.9% and the pKi was 5.91.
Take `Clc1ccccc1-c1n[nH]c2c1CCNCC2` [Example 4, 3-(2-chlorophenyl)-1,4,5,6,7,8-hexahydropyrazolo[3,4-d]azepine]: the inhibition at 10 µM was 88.7% and the pKi is 6.41.
The matching figures for `Clc1cccc(-c2n[nH]c3c2CCNCC3)c1` [Example 5, 3-(3-chlorophenyl)-1,4,5,6,7,8-hexahydropyrazolo[3,4-d]azepine]: 79.2% and 6.05.
For the compound `Clc1ccc(-c2n[nH]c3c2CCNCC3)cc1` [Example 6, 3-(4-chlorophenyl)-1,4,5,6,7,8-hexahydropyrazolo[3,4-d]azepine], the inhibition at 10 µM worked out at 96.4% and the pKi was 7.52.
`Cc1ccccc1-c1n[nH]c2c1CCNCC2` [Example 7, 3-(o-tolyl)-1,4,5,6,7,8-hexahydropyrazolo[3,4-d]azepine]: the inhibition at 10 µM came out at 68.5% and the pKi was 6.06.
`Cc1cccc(-c2n[nH]c3c2CCNCC3)c1` [Example 8, 3-(m-tolyl)-1,4,5,6,7,8-hexahydropyrazolo[3,4-d]azepine]: the inhibition at 10 µM is 63% and the pKi was 5.84.
Consider `Cc1ccc(-c2n[nH]c3c2CCNCC3)cc1` [Example 9, 3-(p-tolyl)-1,4,5,6,7,8-hexahydropyrazolo[3,4-d]azepine], for which the inhibition at 10 µM came to 94.2% and the pKi is 7.33.
Regarding `c1ccc(-c2noc3c2CCNCC3)cc1` [Example 10, 3-phenyl-5,6,7,8-tetrahydro-4H-isoxazolo[4,5-d]azepine], the inhibition at 10 µM stood at 84.3% and the pKi was 6.50.
For the compound `Fc1ccccc1-c1noc2c1CCNCC2` [Example 11, 3-(2-fluorophenyl)-5,6,7,8-tetrahydro-4H-isoxazolo[4,5-d]azepine], the inhibition at 10 µM was 77.9% and the negative logarithm of the Ki (pKi) was 6.44.
Regarding `Fc1cccc(-c2noc3c2CCNCC3)c1` [Example 12, 3-(3-fluorophenyl)-5,6,7,8-tetrahydro-4H-isoxazolo[4,5-d]azepine], the inhibition at 10 µM was determined as 57.5% and the pKi is 5.85.
Regarding `Fc1ccc(-c2noc3c2CCNCC3)cc1` [Example 13, 3-(4-fluorophenyl)-5,6,7,8-tetrahydro-4H-isoxazolo[4,5-d]azepine], the inhibition at 10 µM came out at 94.6% and the pKi is 7.28.
Take `Clc1ccccc1-c1noc2c1CCNCC2` [Example 14, 3-(2-chlorophenyl)-5,6,7,8-tetrahydro-4H-isoxazolo[4,5-d]azepine]: the inhibition at 10 µM worked out at 84.5% and the pKi is 6.37.
Regarding `Clc1cccc(-c2noc3c2CCNCC3)c1` [Example 15, 3-(3-chlorophenyl)-5,6,7,8-tetrahydro-4H-isoxazolo[4,5-d]azepine], the inhibition at 10 µM worked out at 78.7% and the pKi is 6.43.
The matching figures for `Clc1ccc(-c2noc3c2CCNCC3)cc1` [Example 16, 3-(4-chlorophenyl)-5,6,7,8-tetrahydro-4H-isoxazolo[4,5-d]azepine]: 93.8% and 7.15.
Turning to `Cc1ccccc1-c1noc2c1CCNCC2` [Example 17, 3-(o-tolyl)-5,6,7,8-tetrahydro-4H-isoxazolo[4,5-d]azepine], the inhibition at 10 µM came out at 41.8%.
Regarding `Cc1cccc(-c2noc3c2CCNCC3)c1` [Example 18, 3-(m-tolyl)-5,6,7,8-tetrahydro-4H-isoxazolo[4,5-d]azepine], the inhibition at 10 µM amounted to 76.3% and the negative-log Ki (pKi) was 6.30.
For the compound `Cc1ccc(-c2noc3c2CCNCC3)cc1` [Example 19, 3-(p-tolyl)-5,6,7,8-tetrahydro-4H-isoxazolo[4,5-d]azepine], the inhibition at 10 µM amounted to 96.3% and the pKi was 7.80.
As to `COc1ccccc1-c1noc2c1CCNCC2` [Example 20, 3-(2-methoxyphenyl)-5,6,7,8-tetrahydro-4H-isoxazolo[4,5-d]azepine], the inhibition at 10 µM came out at 87.9% and the pKi was 6.52.
